The test system of one test is Schistosoma mansoni. The test is described as follows: Schistosomicidal effect: share of living and dead worm pairs in liver vessels of infected mice, treated vs untreated; VD50 by probit method. The test is classed as in vivo. The following applies: mice infected with cercariae of Schistosoma mansoni; qualitative statement only, VD50 not given. From the text: Die schistosomicide Wirkung wurde ermittelt durch Vergleich des prozentualen Anteils lebender und toter Wurmpaare in den Gefässen der Leber sowohl bei mit Cercarien von Schistosoma mansoni infizierten, behandelten Mäusen als auch bei infizierten aber unbehandelten Kontrolltieren. Die Bestimmung der VD50 (Vermicide Dosis 50%: Dosis, die 50% der Wurmpaare abtötet) erfolgte nach der Probitmethode.

For test [1], the system named is ventralen Prostata und der Samenblase. The test is described as follows: Antiandrogenic effect: weight decrease of ventral prostate and seminal vesicle in male sterilised rats. The test is classed as in vivo, Ratten. The following applies: qualitative statement only. From the text:
Die antiandrogene Wirkung wurde durch Bestimmung der Gewichtsabnahme der ventralen Prostata und der Samenblase von männlichen sterilisierten Ratten ermittelt.

Turning to `CC1(C)NC(=O)N(c2ccc(F)c(C(F)(F)F)c2)C1=N` [1-(3-Trifluormethyl-4-fluor-phenyl)-5-imino-4,4-dimethyl-2-imidazolidinon], the “schistosomicide Wirkung” value with Schistosoma mansoni is “starken schistosomiciden Wirkung”.

As to `CC1(C)NC(=O)N(c2ccc(F)c(Cl)c2)C1=O` [3-(3-Chlor-4-fluor-phenyl)-5,5-dimethylhydantoin], the “antiandrogene Wirkung” value in test [1] is recorded as “antiandrogen wirksame”.

In the case of `CC1(C)NC(=O)N(c2ccc(F)c(C(F)(F)F)c2)C1=O` [3-(3-Trifluormethyl-4-fluorphenyl)-5,5-dimethyl-hydantoin], the “schistosomicide Wirkung” value in the test on Schistosoma mansoni was “starken schistosomiciden Wirkung”.

The record behind these values is EP0017976A2, “Process for preparing imidazole derivatives” (F. HOFFMANN-LA ROCHE & CO. Aktiengesellschaft, priority 1979, dated 1980).
